According to patent publication US12077503B2, “Substituted cyclic amides and their use as herbicides” (FMC CORPORATION, priority 2015, dated 2024):

Experiments:
Type in all cases: in vivo
[1] = tested on: barnyardgrass (Echinochloa crus-galli); test: Test G Pre-Emergence Protocol; settings: Echinochloa crus-galli, pre-emergence, 312 h, evaluated after 13 days; for pest or weed control at 15.625 g/ha: 15.625 g ai/ha, read-out: Barnyard grass damage rating (100=total damage to plant; 0=no damage to plant); for pest or weed control at 62.5 g/ha: 62.5 g ai/ha, 100=total damage to plant, 0=no damage to plant, read-out: plant damage rating, Barnyardgrass; for pest or weed control at 250 g/ha: 250 g ai/ha, read-out: Barnyardgrass damage rating (100=total damage to plant; 0=no damage to plant)
How it was run: (§1)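 Test compound in 0.5% Tween 20 acetone/water (50:50) was applied at three rates (15.625, 62.5, 250 g/ha) to soil sown one day earlier. After 13 days plants were scored for injury, where 0 means unaffected and 100 means completely damaged.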

[2] = tested on: giant foxtail (Setaria faberi); test: Test G Pre-Emergence Protocol; settings: Setaria faberi, pre-emergence, 312 h, evaluated after 13 days; for pest or weed control at 15.625 g/ha: 15.625 g ai/ha; for pest or weed control at 15.625 g/ha / pest or weed control at 250 g/ha: read-out: Foxtail, Giant damage rating (100=total damage to plant; 0=no damage to plant); for pest or weed control at 62.5 g/ha: 62.5 g ai/ha, 100=total damage to plant, 0=no damage to plant, read-out: plant damage rating, Foxtail, Giant; for pest or weed control at 250 g/ha: 250 g ai/ha
How it was run: as §1

[3] = tested on: ivy-leaved morning glory (Ipomoea hederacea); test: Test G Pre-Emergence Protocol; settings: Ipomoea, pre-emergence, 312 h, evaluated after 13 days; for pest or weed control at 15.625 g/ha: 15.625 g ai/ha, read-out: Morning-glory, Ivy-leaved damage rating (100=total damage to plant; 0=no damage to plant); for pest or weed control at 62.5 g/ha: 62.5 g ai/ha, 100=total damage to plant, 0=no damage to plant, read-out: plant damage rating, Morningglory, Ivy-leaved; for pest or weed control at 250 g/ha: 250 g ai/ha, read-out: Morningglory, Ivy-leaved damage rating (100=total damage to plant; 0=no damage to plant)
How it was run: as §1

corn (Zea mays) [4] = test: Test G Pre-Emergence Protocol; settings: Zea mays, pre-emergence, 312 h, evaluated after 13 days; for plant injury at 15.625 g/ha: 15.625 g ai/ha; for plant injury at 15.625 g/ha / plant injury at 250 g/ha: read-out: Corn damage rating (100=total damage to plant; 0=no damage to plant); for plant injury at 62.5 g/ha: 62.5 g ai/ha, 100=total damage to plant, 0=no damage to plant, read-out: plant damage rating, Corn; for plant injury at 250 g/ha: 250 g ai/ha
How it was run: as §1

[5] = tested on: redroot pigweed (Amaranthus retroflexus); test: Test G Pre-Emergence Protocol; settings: Amaranthus retroflexus, pre-emergence, 312 h, evaluated after 13 days; for pest or weed control at 15.625 g/ha: 15.625 g ai/ha; for pest or weed control at 15.625 g/ha / pest or weed control at 250 g/ha: read-out: Pigweed, Redroot damage rating (100=total damage to plant; 0=no damage to plant); for pest or weed control at 62.5 g/ha: 62.5 g ai/ha, 100=total damage to plant, 0=no damage to plant, read-out: plant damage rating, Pigweed, Redroot; for pest or weed control at 250 g/ha: 250 g ai/ha
How it was run: as §1

[6] = tested on: velvetleaf (Abutilon theophrasti); test: Test G Pre-Emergence Protocol; settings: Abutilon theophrasti, pre-emergence, 312 h, evaluated after 13 days; for pest or weed control at 15.625 g/ha: 15.625 g ai/ha; for pest or weed control at 15.625 g/ha / pest or weed control at 250 g/ha: read-out: Velvetleaf damage rating (100=total damage to plant; 0=no damage to plant); for pest or weed control at 62.5 g/ha: 62.5 g ai/ha, 100=total damage to plant, 0=no damage to plant, read-out: plant damage rating, Velvetleaf; for pest or weed control at 250 g/ha: 250 g ai/ha
How it was run: as §1

[7] = tested on: barnyardgrass (Echinochloa crus-galli); test: Test G Post-Emergence Protocol; settings: Echinochloa crus-galli, post-emergence, 312 h; for pest or weed control at 15.625 g/ha: 15.625 g ai/ha, evaluated after 13 days (100=total damage to plant; 0=no damage to plant), read-out: Barnyardgrass damage rating; for pest or weed control at 62.5 g/ha: 62.5 g ai/ha, read-out: Barnyardgrass damage rating (100=total damage to plant; 0=no damage to plant); for pest or weed control at 62.5 g/ha / pest or weed control at 250 g/ha: evaluated after 13 days; for pest or weed control at 250 g/ha: 250 g ai/ha, read-out: damage to plant, Barnyardgrass (100=total damage to plant; 0=no damage to plant)
How it was run: (§2)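 Seedlings grown 8 days in soil in a glasshouse (24/16 °C day/night, 14 h light, 65% humidity) were sprayed post-emergence with compound in acetone/water 50:50 plus 0.5% Tween 20 at 15.625, 62.5 or 250 g/ha. Damage was scored after 13 days on a 0–100 scale (100 = total damage).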

[8] = tested on: giant foxtail (Setaria faberi); test: Test G Post-Emergence Protocol; settings: Setaria faberi, post-emergence, 312 h; for pest or weed control at 15.625 g/ha: 15.625 g ai/ha, evaluated after 13 days (100=total damage to plant; 0=no damage to plant), read-out: Foxtail, Giant damage rating; for pest or weed control at 62.5 g/ha: 62.5 g ai/ha, read-out: Foxtail, Giant damage rating (100=total damage to plant; 0=no damage to plant); for pest or weed control at 62.5 g/ha / pest or weed control at 250 g/ha: evaluated after 13 days; for pest or weed control at 250 g/ha: 250 g ai/ha, read-out: damage to plant, Foxtail, Giant (100=total damage to plant; 0=no damage to plant)
How it was run: as §2

[9] = tested on: ivy-leaved morning glory (Ipomoea hederacea); test: Test G Post-Emergence Protocol; settings: Ipomoea, post-emergence, 312 h; for pest or weed control at 15.625 g/ha: 15.625 g ai/ha, evaluated after 13 days (100=total damage to plant; 0=no damage to plant), read-out: Morningglory, Ivy-leaved damage rating; for pest or weed control at 62.5 g/ha: 62.5 g ai/ha, read-out: Morningglory, Ivy-leaved damage rating (100=total damage to plant; 0=no damage to plant); for pest or weed control at 62.5 g/ha / pest or weed control at 250 g/ha: evaluated after 13 days; for pest or weed control at 250 g/ha: 250 g ai/ha, read-out: damage to plant, Morningglory, Ivy-leaved (100=total damage to plant; 0=no damage to plant)
How it was run: as §2

corn (Zea mays) [10] = test: Test G Post-Emergence Protocol; settings: Zea mays, post-emergence, 312 h; for plant injury at 15.625 g/ha: 15.625 g ai/ha, evaluated after 13 days (100=total damage to plant; 0=no damage to plant), read-out: Corn damage rating; for plant injury at 62.5 g/ha: 62.5 g ai/ha, read-out: Corn damage rating (100=total damage to plant; 0=no damage to plant); for plant injury at 62.5 g/ha / plant injury at 250 g/ha: evaluated after 13 days; for plant injury at 250 g/ha: 250 g ai/ha, read-out: damage to plant, Corn (100=total damage to plant; 0=no damage to plant)
How it was run: as §2

[11] = tested on: redroot pigweed (Amaranthus retroflexus); test: Test G Post-Emergence Protocol; settings: Amaranthus retroflexus, post-emergence, 312 h; for pest or weed control at 15.625 g/ha: 15.625 g ai/ha, evaluated after 13 days (100=total damage to plant; 0=no damage to plant), read-out: Pigweed, Redroot damage rating; for pest or weed control at 62.5 g/ha: 62.5 g ai/ha, read-out: Pigweed, Redroot damage rating (100=total damage to plant; 0=no damage to plant); for pest or weed control at 62.5 g/ha / pest or weed control at 250 g/ha: evaluated after 13 days; for pest or weed control at 250 g/ha: 250 g ai/ha, read-out: damage to plant, Pigweed, Redroot (100=total damage to plant; 0=no damage to plant)
How it was run: as §2

[12] = tested on: velvetleaf (Abutilon theophrasti); test: Test G Post-Emergence Protocol; settings: Abutilon theophrasti, post-emergence, 312 h; for pest or weed control at 15.625 g/ha: 15.625 g ai/ha, evaluated after 13 days (100=total damage to plant; 0=no damage to plant), read-out: Velvetleaf damage rating; for pest or weed control at 62.5 g/ha: 62.5 g ai/ha, read-out: Velvetleaf damage rating (100=total damage to plant; 0=no damage to plant); for pest or weed control at 62.5 g/ha / pest or weed control at 250 g/ha: evaluated after 13 days; for pest or weed control at 250 g/ha: 250 g ai/ha, read-out: damage to plant, Velvetleaf (100=total damage to plant; 0=no damage to plant)
How it was run: as §2

SMILES	pest or weed control at 15.625 g/ha [1] [%]	pest or weed control at 62.5 g/ha [1] [%]	pest or weed control at 250 g/ha [1] [%]	pest or weed control at 15.625 g/ha [2] [%]	pest or weed control at 62.5 g/ha [2] [%]	pest or weed control at 250 g/ha [2] [%]	pest or weed control at 15.625 g/ha [3] [%]	pest or weed control at 62.5 g/ha [3] [%]	pest or weed control at 250 g/ha [3] [%]	plant injury at 15.625 g/ha (corn (Zea mays) [4]) [%]	plant injury at 62.5 g/ha (corn (Zea mays) [4]) [%]	plant injury at 250 g/ha (corn (Zea mays) [4]) [%]	pest or weed control at 15.625 g/ha [5] [%]	pest or weed control at 62.5 g/ha [5] [%]	pest or weed control at 250 g/ha [5] [%]	pest or weed control at 15.625 g/ha [6] [%]	pest or weed control at 62.5 g/ha [6] [%]	pest or weed control at 250 g/ha [6] [%]	pest or weed control at 15.625 g/ha [7] [%]	pest or weed control at 62.5 g/ha [7] [%]	also measured
Cc1nc(NC(=O)[C@@H]2C(=O)N(C)C[C@H]2c2ccc(C(F)(F)F)cc2)ccc1Cl (racemic) [Compound 1642]	0	0	0	0	0	20	0	0	0	0	0	10	0	0	0	0	0	0	0	0	pest or weed control at 250 g/ha [7]: 10%; pest or weed control at 15.625 g/ha [8]: 0%; pest or weed control at 62.5 g/ha [8]: 30%; pest or weed control at 250 g/ha [8]: 70%; pest or weed control at 15.625 g/ha [9]: 0%; pest or weed control at 62.5 g/ha [9]: 0%; pest or weed control at 250 g/ha [9]: 0%; plant injury at 15.625 g/ha (corn (Zea mays) [10]): 0%; plant injury at 62.5 g/ha (corn (Zea mays) [10]): 0%; plant injury at 250 g/ha (corn (Zea mays) [10]): 0%; pest or weed control at 15.625 g/ha [11]: 0%; pest or weed control at 62.5 g/ha [11]: 0%; pest or weed control at 250 g/ha [11]: 20%; pest or weed control at 15.625 g/ha [12]: 0%; pest or weed control at 62.5 g/ha [12]: 0%; pest or weed control at 250 g/ha [12]: 0%
CN1C[C@H](c2cccc(C(C)(C)C#N)c2)[C@@H](C(=O)Nc2ccccc2F)C1=O (racemic) [Compound 1407]	10	80	90	50	80	90	0	0	0	0	0	0	0	0	0	0	0	0	10	40	pest or weed control at 250 g/ha [7]: 60%; pest or weed control at 15.625 g/ha [8]: 0%; pest or weed control at 62.5 g/ha [8]: 70%; pest or weed control at 250 g/ha [8]: 70%; pest or weed control at 15.625 g/ha [9]: 0%; pest or weed control at 62.5 g/ha [9]: 20%; pest or weed control at 250 g/ha [9]: 30%; plant injury at 15.625 g/ha (corn (Zea mays) [10]): 0%; plant injury at 62.5 g/ha (corn (Zea mays) [10]): 10%; plant injury at 250 g/ha (corn (Zea mays) [10]): 20%; pest or weed control at 15.625 g/ha [11]: 20%; pest or weed control at 62.5 g/ha [11]: 10%; pest or weed control at 250 g/ha [11]: 30%; pest or weed control at 15.625 g/ha [12]: 10%; pest or weed control at 62.5 g/ha [12]: 20%; pest or weed control at 250 g/ha [12]: 20%
